Experiments:
AMPK [1] = experiment: AMPK target engagement: Thr172 phosphorylation of alpha-AMPK (Alpha SureFire Ultra Multiplex) in undifferentiated HUDEP-2 cells; type: cell-based, human
Protocol: Phosphorylation of AMPK at threonine 172 (Thr172) on the α-subunit of AMPK was assessed by […] using the Alpha SureFire Ultra Multiplex p-AMPKα1/2 (Thr172)+Total AMPKα1/2 Assay Kit from Perkin Elmer as a target engagement assay. The assay kit contains antibodies, coupled with fluorophore Europium, which recognize the phospho-Thr172 epitope and a distal epitope on α-AMPK of human or mouse AMPK. The kit also contains antibodies coupled with the fluorophore Terbium to measure the total levels of AMPK. […] As to the human HUDEP-2 cells line, cells were undifferentiated during exposure to AMPK activators. According to the time course, cells were collected and lysed using RIPA buffer mixed with a phosphatase and protease inhibitors cocktail (Thermofisher). Phospho-AMPK signal was divided by total AMPK signal and the ratio was normalized to the total protein concentration. Samples protein concentrations were measured with the Pierce BSA Protein Assay (ThermoFisher).

human CD34+ cells [2] = experiment: Fetal hemoglobin (HbF) induction in mobilized CD34+ HSPC from healthy individuals during erythroid differentiation, F-cells by flow cytometry; type: cell-based; conditions: healthy donors; for frequency of F-cells (HbF+): compared to vehicle (DMSO); for fetal hemoglobin induction, F-cell (HbF+) frequency in enucleated GlyA+ cells: vs DMSO or single agents
Protocol: Mobilized CD34+ Human Stem/Progenitor Cells (HSPC) from healthy individuals were cultured for 3 days in a maintenance media consisting of X-VIVO 10 (VWR), 100 U/mL penicillin-streptomycin (ThermoFisher), 2 mM L-glutamine (Fisher Scientific), 100 ng/mL Recombinant Human Stem Cell Factor (SCF), 100 ng/mL Recombinant Human Thrombopoietin (TPO) and 100 ng/mL Recombinant Human Flt-3 Ligand (Flt-3L) (all three from ThermoFisher). Cells were differentiated into erythroid cells using a three-step differentiation protocol developed by the Luc Douay group (Giarratana et al. 2005). […] On day 7, cells were transferred to step 2 media, a step 1 media without hydrocortisone and IL-3, and cultured for 3-4 days. Then cells were cultured for 8-9 days in step 3 media, a step 2 media without SCF. […] To determine the percentage of HbF-positive cells (F-cells), differentiate cells were fixed and permeabilized using a fixation kit (ThermoFisher). Cells were stained with PE-Cy7-conjugated anti-CD235 or PE-conjugated anti-CD71 antibodies. HbF levels were detected using Allophycocyanin (APC)-conjugated anti-HbF antibody (ThermoFisher). The acquisition of stained cells was performed on BD FACSCanto™ and the analysis was run using FlowJo™ Software.
Human CD34+ cells were exposed to β1-selective AMPK activators and pan-AMPK activators during the 21-day differentiation process. To assess fetal hemoglobin expression level, cells were fixed and stained with CD235a, CD71 and fetal hemoglobin antibodies for flowcytometry analysis.
After 14 days of differentiation, cells were fixed and stained with CD235a, CD71 and fetal hemoglobin antibodies for flowcytometry analysis.

AMPK [3] = target: T1, AMPK (Homo sapiens, UniProt Q13131+Q9Y478); experiment: AMPK target engagement: Thr172 phosphorylation of alpha-AMPK (Alpha SureFire Ultra Multiplex) in CD34+ cells at day 11 of differentiation; type: cell-based; conditions: differentiated CD34+ cells
T1 construct: endogenous in cells; host or cells: mobilized human CD34+ HSPC from a healthy donor, day 11 of erythroid differentiation

[4] = system: Reactive Oxidative Species (ROS); experiment: Reactive Oxidative Species (ROS) in bone marrow from Townes SCD mice by flow cytometry; type: in vivo, mouse; conditions: 100 mg/kg PO QD 15 days, vs HbSS mice treated with vehicle
[5] = 7-day toxicological study in rats, hematological erythroid parameters; type: in vivo, Crl:CD (Sprague Dawley) rats; conditions: rats, 100, 300 and 1000 mg/kg/day PO QD 7 days, blood on day 8
Protocol: On day 8, blood samples were drawn and complete blood counts (CBC) were tested on a hematology analyzer to determine red blood cell counts (10^6 RBC/μL), hemoglobin (Hb, g/dL) and hematocrit (HCT, %).

[6] = system: Nrf2-oxidative stress response pathway; experiment: Transcriptomic and proteomic analysis of human CD34+ cells differentiated 14 days (correlation study, IPA); type: cell-based; conditions: 3 healthy donors
Protocol: At day 14, RNA was extracted with Trizol reagent (Invitrogen). DNase treatment, RNA integrity and quantification, libraries generation and sequencing (Illumina HiSeq platforms HiSeq 2500) were realized according to Genewiz protocol (South Plainfield, NJ). Concerning the proteomic analysis, proteins were extracted from the same CD34+ cells used for the transcriptomic analysis. Samples preparation, proteins digestion, peptides TMT labeling and proteomic analysis were performed according to IQ Proteomics (Cambridge, MA). Bioinformatics analysis have been conducted to determine the differential expression of mRNA and proteins, and a correlation study using the differential expression from the transcriptomic analysis and the differential expression from the proteomics analysis has been run. […] SQSTM1 is known to activate Nrf2 by inhibiting Keapl, and Nrf2 pathway is known to induce HO-1 for antioxidative function in cells.

fetal hemoglobin protein = experiment: Human fetal hemoglobin protein in Townes mice bone marrow by flow cytometry, 15-day study; type: in vivo, mouse; conditions: HbSS Townes mice, 100 mg/kg PO QD 15 days, vs vehicle
Description: These mice express the genes for human HbS (homozygous HbSS), express the physiopathological phenotype of SCD and are called “HbSS-Townes mice”, whereas the control Townes mice express the genes for human HbA without the sickle mutation (homozygous HbAA), are healthy, and are called “HbAA-Townes mice” (Jackson Laboratory). These control HbAA-Townes mice were created by replacing the murine globin genes with human α-globin gene (genotype: Hba hα/hα) and linked human βA− and fetal Aγ-globins (genotype: Hbb hAγβA/hAγβA), whereas HbSS-Townes mice were created by replacing the murine adult α-globin genes with the human α-globin gene (genotype: Hba hα/hα), and the murine adult β-globin genes were replaced with human sickle βS− and fetal Aγ-globin gene fragments linked together (genotype: Hbb hAγβS/hAγβS).

human CD34+ cells [7] = experiment: Maturation of CD34+ cells to erythrocytes: enucleation (NucRed) and markers CD71/CD235a by flow cytometry; type: cell-based
Protocol: During human CD34+ cells differentiation, maturation is measured by quantification of enucleation and expression of markers CD71 and CD235a, and assessed by flowcytometry. […] As well, cells were stained for markers CD235a and CD71. The acquisition was performed on BD FACSCanto™ and the analysis was done using FlowJo™ Software.

[8] = system: HBG (human gamma-globin) mRNA; experiment: gamma-globin (HBG) mRNA in Townes mouse bone marrow by qRT-PCR; type: in vivo; conditions: HbAA mice bone marrow, 2 days of exposure, 100 mg/kg
Protocol: Total RNA from Townes mouse bone marrow cells was prepared using a RNeasy Mini kit (Qiagen). A quantity of 1 μg of mRNA was reverse transcribed using an iVILO Retro Transcription kit (ThermoFisher). 50 ng of the resulting cDNA was amplified by Taqman amplification in a QuantStudio thermocycler (Life Technologies) using HBG (human 7-globin primers) as gene of interest, and GAPDH (mouse gapdh primers) as a housekeeping gene (Life Technologies). The delta Ct was calculated and difference in mRNA expression was expressed as a fold-change to vehicle condition.

M1 macrophages = experiment: Macrophage polarization to pro-inflammatory M1 phenotype, markers by flow cytometry; type: cell-based, human; conditions: M-CSF polarized macrophages activated by IFN-γ or LPS for 24 h
Protocol: M1 macrophages were induced by stimulation with M-CSF (50 ng/mL) for 6 days, then activated by IFN-7 or LPS for 24 h, fixed, stained for M1 polarization markers CD38, CD64, CD86 and CD80 and acquired by flowcytometry.

[9] = system: human CD34+ cells from sickle cell donors; experiment: Fetal hemoglobin induction in CD34+ cells from patients with sickle cell disease, 14-day differentiation; type: cell-based; conditions: 14 days of differentiation, vs DMSO
Description: To measure the effect of AMPK activators on fetal hemoglobin induction in CD34+ cells from patients with sickle cell disease, circulating CD34+ progenitor cells were isolated from total blood obtained from a sickle cell patients, by performing a positive selection for CD34+ cells with magnetic beads (Miltenyi Biotec). Purified CD34+ cells were differentiated for 14 days. After differentiation, cells were fixed and stained with CD235a, CD71 and fetal hemoglobin antibodies for flowcytometry analysis.

T1 sequence (Q13131 whole entry): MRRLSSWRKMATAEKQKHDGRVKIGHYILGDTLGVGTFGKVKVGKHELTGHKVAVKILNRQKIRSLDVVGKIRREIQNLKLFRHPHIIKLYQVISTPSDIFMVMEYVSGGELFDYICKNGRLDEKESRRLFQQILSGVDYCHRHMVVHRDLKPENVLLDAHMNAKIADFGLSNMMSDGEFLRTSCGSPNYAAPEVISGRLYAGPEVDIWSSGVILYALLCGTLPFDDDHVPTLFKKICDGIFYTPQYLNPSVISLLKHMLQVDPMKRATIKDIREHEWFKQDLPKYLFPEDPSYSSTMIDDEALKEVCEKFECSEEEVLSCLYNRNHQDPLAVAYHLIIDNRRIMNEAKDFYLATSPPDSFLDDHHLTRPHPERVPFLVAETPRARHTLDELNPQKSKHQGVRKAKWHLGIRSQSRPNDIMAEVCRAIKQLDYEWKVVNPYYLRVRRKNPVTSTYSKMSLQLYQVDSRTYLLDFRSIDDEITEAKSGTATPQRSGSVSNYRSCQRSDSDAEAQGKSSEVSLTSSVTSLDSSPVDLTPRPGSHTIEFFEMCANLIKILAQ
T1 sequence (Q9Y478 2-270): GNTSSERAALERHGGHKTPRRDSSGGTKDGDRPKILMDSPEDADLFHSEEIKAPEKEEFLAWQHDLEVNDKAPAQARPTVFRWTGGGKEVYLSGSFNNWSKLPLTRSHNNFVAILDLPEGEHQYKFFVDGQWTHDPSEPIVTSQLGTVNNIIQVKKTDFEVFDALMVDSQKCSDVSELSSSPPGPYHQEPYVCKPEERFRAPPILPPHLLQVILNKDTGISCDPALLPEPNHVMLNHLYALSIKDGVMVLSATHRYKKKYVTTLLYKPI
T1 sequence (P54619 whole entry partner): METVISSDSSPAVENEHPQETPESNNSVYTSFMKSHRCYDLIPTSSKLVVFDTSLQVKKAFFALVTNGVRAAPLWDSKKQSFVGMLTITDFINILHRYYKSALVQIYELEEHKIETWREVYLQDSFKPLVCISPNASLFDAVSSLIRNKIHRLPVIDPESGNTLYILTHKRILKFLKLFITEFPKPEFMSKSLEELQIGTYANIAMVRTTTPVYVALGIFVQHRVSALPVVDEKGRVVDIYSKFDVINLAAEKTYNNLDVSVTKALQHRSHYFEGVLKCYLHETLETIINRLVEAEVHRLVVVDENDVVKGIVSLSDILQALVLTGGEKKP

SMILES: N#Cc1c(O)c2c(-c3ccc(-c4ccccc4O)cc3)csc2[nH]c1=O [Compound 2]
- time of peak AMPK phosphorylation (Thr172, pAMPK/total AMPK) (AMPK [1]): around 1 hours
- frequency of F-cells (HbF+) (human CD34+ cells [2]; 21 days of differentiation): increase

SMILES: COc1cccc(-n2c(=O)[nH]c3cc(Cl)n(-c4ccc(-c5cccc(OC)c5O)cc4)c3c2=O)c1 [Compound 4]
- time of peak AMPK phosphorylation (Thr172, pAMPK/total AMPK) (AMPK [1]): around 1 hours
- frequency of F-cells (HbF+) (human CD34+ cells [2]; 21 days of differentiation): increase
- time of peak AMPK phosphorylation (Thr172, pAMPK/total AMPK) (AMPK [3]): around 3 hour

SMILES: O=C(O)c1c[nH]c2cc(Cl)c(-c3ccc(C4(O)CCC4)cc3)cc12 [Compound 1]
- ROS in bone marrow [4]: decrease
- hematocrit [5]: does not reduce
- hemoglobin [5]: does not reduce
- red blood cell counts (RBC) [5]: does not reduce
- Nrf2-antioxidant response element signaling pathway (IPA of proteomics data) [6]: activated
- HO-1 (HMOX1) protein regulation ([6]; vs DMSO): upregulated
- SQSTM1 protein regulation ([6]; vs DMSO): upregulated
- fetal hemoglobin protein expression in bone marrow (fetal hemoglobin protein): increase
- expression of differentiation markers CD71 and CD235a (human CD34+ cells [7]; after 14 days of differentiation): unchanged
- enucleation of CD34+ cells (human CD34+ cells [7]; after 21 days of differentiation): no effect
- mRNA for human HbF (human γ-globin, HBG) increase [8]: not
- expression of proinflammatory M1 marker CD38 (M1 macrophages): decreased
- expression of proinflammatory M1 marker CD64 (M1 macrophages): decreased
- expression of proinflammatory M1 marker CD80 (M1 macrophages): decreased
- expression of proinflammatory M1 marker CD86 (M1 macrophages): decreased
- F-cell (HbF+) frequency in enucleated GlyA+ cells [9]: increase
- fetal hemoglobin induction, F-cell (HbF+) frequency in enucleated GlyA+ cells (human CD34+ cells [2]; 14 days of differentiation): increases
- increase of HbF+ cells compared to DMSO (human CD34+ cells [2]; 21 days of differentiation): about 2 fold
- frequency of F-cells (HbF+) (human CD34+ cells [2]; 21 days of differentiation): increase

SMILES: OCCOc1cc(F)c(COc2nc3nc(O[C@@H]4CO[C@H]5[C@@H]4OC[C@H]5O)[nH]c3cc2Cl)c(F)c1 [Compound 3]
- time of peak AMPK phosphorylation (Thr172, pAMPK/total AMPK) (AMPK [1]): around 1 hours
- frequency of F-cells (HbF+) (human CD34+ cells [2]; 21 days of differentiation): increase
- time of peak AMPK phosphorylation (Thr172, pAMPK/total AMPK) (AMPK [3]): around 3 hour

SMILES: NC(=O)NO [Hydroxyurea, hydroxyurea]
- F-cell (HbF+) frequency in enucleated GlyA+ cells [9]: increase
- fetal hemoglobin induction, F-cell (HbF+) frequency in enucleated GlyA+ cells (human CD34+ cells [2]; 14 days of differentiation): increases
- fold change in fetal hemoglobin expression compared to control (human CD34+ cells [2]; 14 days of differentiation, vs Vehicle (DMSO)): 1,5 fold
